# In PubChem BioAssay (NCI):
#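 All cell lines were grown in 96-well plates and treated with compound for 48 hours. TGI: total growth inhibition.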
# Columns and labels:
# Experiment in all cases: NCI anticancer screen, dose series, 48 h
# CAKI-1 renal = test system: CAKI-1 renal
# HCT-116 colon = test system: HCT-116 colon
# HCT-15 colon = test system: HCT-15 colon
# IGROV1 ovarian = test system: IGROV1 ovarian
# MCF7 breast = test system: MCF7 breast
# NCI-H522 lung = test system: NCI-H522 lung
# OVCAR-4 ovarian = test system: OVCAR-4 ovarian
# OVCAR-8 ovarian = test system: OVCAR-8 ovarian
# RXF 393 renal = test system: RXF 393 renal
# SK-MEL-5 melanoma = test system: SK-MEL-5 melanoma
# SK-OV-3 ovarian = test system: SK-OV-3 ovarian
# SN12C renal = test system: SN12C renal
# SNB-19 CNS = test system: SNB-19 CNS
# SR leukemia = test system: SR leukemia
# SW-620 colon = test system: SW-620 colon
# U251 CNS = test system: U251 CNS
# UACC-62 melanoma = test system: UACC-62 melanoma
# UO-31 renal = test system: UO-31 renal
# OVCAR-5 ovarian = test system: OVCAR-5 ovarian
SMILES,TGI (CAKI-1 renal) [µM],TGI (HCT-116 colon) [µM],TGI (HCT-15 colon) [µM],TGI (IGROV1 ovarian) [µM],TGI (MCF7 breast) [µM],TGI (NCI-H522 lung) [µM],TGI (OVCAR-4 ovarian) [µM],TGI (OVCAR-8 ovarian) [µM],TGI (RXF 393 renal) [µM],TGI (SK-MEL-5 melanoma) [µM],TGI (SK-OV-3 ovarian) [µM],TGI (SN12C renal) [µM],TGI (SNB-19 CNS) [µM],TGI (SR leukemia) [µM],TGI (SW-620 colon) [µM],TGI (U251 CNS) [µM],TGI (UACC-62 melanoma) [µM],TGI (UO-31 renal) [µM],TGI (OVCAR-5 ovarian) [µM]
CC(=O)OCC(OC(C)=O)C1C[C@H]2O[C@@H]3[C@H](C[C@H]2O1)O[C@@]1(C[C@@H]3C)C[C@H](C)[C@@H]2O[C@]3(C[C@@H]2O1)C[C@H]1O[C@H]2[C@H](C)[C@H]4OC(=O)C[C@H]5CC[C@@H]6OC7[C@H]8O[C@]9(CC[C@H]%10CC(=O)[C@H](CC[C@H]%11C[C@@H](C)C(=O)C(C[C@@H]4O[C@H]2C[C@H]1O3)O%11)O%10)CC8O[C@@H]7[C@@H](O9)[C@H]6O5 (some centres not stated),> 1,> 0.39,> 0.219,> 1,> 1,0.00322,> 1,> 0.258,> 1,> 1,> 0.22,> 1,> 1,> 1,> 1,> 1,> 1,> 1,–
COc1ccccc1C[C@@H]1OC2(C=CC(=O)CC2SC(=O)c2ccccc2)O[C@H]1Cc1ccccc1OC (some centres not stated),5.24,0.651,4.75,2.74,2.36,–,3.69,–,0.501,3.1,5.04,6.49,4.94,2.81,1.35,2.81,7,2.54,2.63
CCOC(=O)C1(CO)CSCCSC1,–,> 100,> 100,–,> 100,> 100,–,> 100,> 100,> 100,> 100,> 100,> 100,> 100,> 100,> 100,–,> 100,–
O=C1C2=Cc3ccccc3CCN2c2ccccc21,30.4,> 70.4,> 79.5,> 100,> 61,> 82.7,> 100,> 100,–,34.1,–,> 31.6,> 100,29.5,> 31.6,> 31.6,–,> 100,> 100
OCC1OC(NC(=S)NCCC(F)(F)C(F)(F)C(F)(F)C(F)(F)C(F)(F)C(F)(F)F)C(O)C(O)C1O (configuration not stated),> 100,> 100,> 100,> 100,> 100,–,> 100,–,> 100,> 100,> 100,> 100,> 100,> 100,> 100,> 100,> 100,> 100,> 100
COC(=O)c1ccccc1/C=C1\Cc2c(ccc3c2CCC3)C1=O,> 100,> 100,> 100,> 100,> 100,> 100,> 100,> 100,> 100,> 100,–,> 100,> 100,> 100,> 100,> 100,> 100,> 100,> 100
CSC1=N/C(=C\c2ccc(C)cc2)C(=O)N1,> 100,> 100,> 100,> 100,> 100,> 100,> 100,> 100,96.2,–,> 100,> 100,> 100,> 100,> 100,> 100,> 100,> 100,> 100
COc1cc2c(cc1OCCCNC(=O)c1cc3ccccc3[nH]1)N=C[C@@H]1CCCN1C2=O,–,14.3,> 26.9,0.74,> 48.1,0.0462,11.7,3.64,–,0.297,> 60.2,14.9,> 38.3,> 100,> 100,> 33.6,0.705,> 100,> 33.3
O=S(=O)(O)CCSSCCS(=O)(=O)O,> 1000,> 1000,> 1000,> 1000,> 1000,> 1000,> 1000,> 1000,> 1000,–,> 1000,> 1000,> 1000,> 1000,> 1000,> 1000,> 1000,> 1000,> 1000
CC1=CC[C@H](C[C@H](C#CCCCC2OCCO2)O[Si](C(C)C)(C(C)C)C(C)C)C(=O)CC1,> 100,> 100,> 100,> 100,> 100,–,> 100,> 100,> 100,> 100,> 100,> 100,> 100,> 100,> 100,> 100,> 100,> 100,> 100
C[C@]12CC[C@H]3[C@@H](CCC4=CC(=O)CC[C@@H]43)[C@@H]1CC[C@]2(O)C(N)=O,–,> 100,> 100,> 100,> 100,> 100,> 100,> 100,> 100,> 100,> 100,> 100,> 100,> 100,> 100,> 100,> 100,> 100,> 100
O=c1[nH]c(=O)n(C/C=C/CO)nc1Br,> 100,> 100,> 100,> 100,> 100,> 100,> 100,> 100,> 100,> 100,–,> 100,> 100,> 100,> 100,> 100,> 100,> 100,> 100
